Test results as given in patent EP4467141A1, “PYRAZOLO-QUINOLINES AS SELECTIVE INHIBITORS OF GENOTOXIC STRESS-INDUCED IKK/NF- KB PATHWAYS FOR CANCER THERAPY” (Max-Delbrück-Centrum für Molekulare Medizin in der …, priority 2023, dated 2024).
Like-named read-outs stand apart in the source and are kept apart here.

Assays:
Experiment in all cases: Kinase panel study
Assay type in all cases: biochemical
PIP4K2A = target: T1, PIP4K2A (Homo sapiens, UniProt P48426); conditions: for inhibition at 1 µM: 1000nM
T1 construct: purchased Thermo Fisher Scientific
T1 sequence (P48426 1-406): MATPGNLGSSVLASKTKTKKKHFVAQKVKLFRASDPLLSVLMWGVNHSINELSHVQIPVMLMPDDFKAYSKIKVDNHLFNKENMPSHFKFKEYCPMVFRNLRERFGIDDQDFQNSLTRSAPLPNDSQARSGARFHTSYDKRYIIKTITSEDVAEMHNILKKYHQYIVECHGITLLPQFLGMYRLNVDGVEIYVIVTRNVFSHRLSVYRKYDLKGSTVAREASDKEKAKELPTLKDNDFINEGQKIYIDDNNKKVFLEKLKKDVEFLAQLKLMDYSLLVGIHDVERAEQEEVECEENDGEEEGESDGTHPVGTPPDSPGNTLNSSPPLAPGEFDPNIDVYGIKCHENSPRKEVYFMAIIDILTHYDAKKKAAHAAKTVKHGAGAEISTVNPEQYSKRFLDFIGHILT
Method: (§1) The Kinase panel study was entirely provided by Thermo Fisher Scientific using the two lead compounds MW01 and MW05 as well as their derivatives (MW01-E06, MW01-E10, MW01-E14, MW01-E18, MW05-E2, MW05-E3, MW05-E9 and MW05-E10. The experiment was performed using the ZLyte or Adapta protocol according to manufacturer standard operating procedures.
(§2) Based on their similar effects in our screen and molecular analysis, MW01 and MW05 were used in comparative target deconvolution studies seeking common targets despite their distinct structures. To eliminate previously identified kinases regulating NF-κB activity, such as IKK, as possible targets of MW01 and MW05, an in vitro kinase inhibition assay was performed. […] We next investigated if any of the shared kinase targets of MW01 and MW05 play a role in genotoxic stress-induced NF-κB activity and established several criteria to narrow down pathway-relevant targets. Considering the similar NF-κB inhibition phenotypes of both compounds, we hypothesized first that the target should be shared by both lead compounds. Second, based on the CaCo2 recovery values and experimental treatment concentration of 10 µM), the putative target kinase should have a low IC50 of, at most, 2000 nM for both lead compounds in the in vitro kinase panel (Fig. 2A). Based on these criteria alone, we arrived at a relatively short list of potential targets for further analysis, leaving only PIK3CG, PIK3C2G, and CLK2 (Fig. 2B). IC50 values for PIK3C2G by both lead compounds agreed best with these criteria, but RNA expression analysis indicates high tissue specificity as well as lack of expression of this kinase in our U2-OS model cell line, which we then eliminated from further analysis (Uhlén et al., 2015). […] Table 6: Percentage of inhibition of the indicated kinases by MW01 or MW05 at either 10 µM or 1 µM. n.d. = not determined.

DNA-PK = target: T2, DNA-PK (Homo sapiens, UniProt P78527); conditions: for inhibition at 1 µM: 1000nM
T2 construct: purchased Thermo Fisher Scientific
Method: as §1, §2

[1] = target: T3, PIK3CB/PIK3R2 (p11 0 beta/p85 beta) (Homo sapiens, UniProt P42338); conditions: for inhibition at 1 µM: 1000nM
T3 construct: purchased Thermo Fisher Scientific
T3 sequence (P42338 whole entry): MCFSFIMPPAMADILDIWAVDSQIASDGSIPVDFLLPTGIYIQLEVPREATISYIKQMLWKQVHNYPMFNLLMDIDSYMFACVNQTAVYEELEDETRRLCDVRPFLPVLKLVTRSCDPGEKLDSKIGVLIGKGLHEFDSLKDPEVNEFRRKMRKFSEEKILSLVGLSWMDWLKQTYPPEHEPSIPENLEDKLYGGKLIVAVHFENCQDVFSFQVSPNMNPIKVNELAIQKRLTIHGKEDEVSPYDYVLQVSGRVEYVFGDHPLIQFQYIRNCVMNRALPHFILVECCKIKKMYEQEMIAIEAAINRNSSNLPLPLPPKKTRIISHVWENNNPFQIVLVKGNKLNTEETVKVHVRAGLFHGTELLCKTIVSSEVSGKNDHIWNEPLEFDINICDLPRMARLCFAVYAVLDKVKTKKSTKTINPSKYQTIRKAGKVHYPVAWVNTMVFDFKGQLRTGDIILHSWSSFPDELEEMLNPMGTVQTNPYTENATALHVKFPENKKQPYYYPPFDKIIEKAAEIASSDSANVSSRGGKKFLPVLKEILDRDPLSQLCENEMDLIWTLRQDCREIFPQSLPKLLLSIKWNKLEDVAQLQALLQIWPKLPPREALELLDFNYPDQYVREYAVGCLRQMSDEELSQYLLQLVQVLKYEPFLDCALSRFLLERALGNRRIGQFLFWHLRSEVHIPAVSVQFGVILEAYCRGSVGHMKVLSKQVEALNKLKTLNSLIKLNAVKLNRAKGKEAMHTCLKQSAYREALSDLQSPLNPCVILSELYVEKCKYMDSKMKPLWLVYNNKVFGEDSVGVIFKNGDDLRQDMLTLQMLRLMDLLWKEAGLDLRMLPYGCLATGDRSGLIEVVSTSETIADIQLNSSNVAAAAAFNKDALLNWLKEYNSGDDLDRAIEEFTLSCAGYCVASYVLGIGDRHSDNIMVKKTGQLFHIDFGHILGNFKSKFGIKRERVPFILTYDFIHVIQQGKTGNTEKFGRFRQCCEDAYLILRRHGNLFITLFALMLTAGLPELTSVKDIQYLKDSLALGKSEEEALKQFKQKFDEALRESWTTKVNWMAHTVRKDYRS
T3 sequence (O00459 whole entry partner): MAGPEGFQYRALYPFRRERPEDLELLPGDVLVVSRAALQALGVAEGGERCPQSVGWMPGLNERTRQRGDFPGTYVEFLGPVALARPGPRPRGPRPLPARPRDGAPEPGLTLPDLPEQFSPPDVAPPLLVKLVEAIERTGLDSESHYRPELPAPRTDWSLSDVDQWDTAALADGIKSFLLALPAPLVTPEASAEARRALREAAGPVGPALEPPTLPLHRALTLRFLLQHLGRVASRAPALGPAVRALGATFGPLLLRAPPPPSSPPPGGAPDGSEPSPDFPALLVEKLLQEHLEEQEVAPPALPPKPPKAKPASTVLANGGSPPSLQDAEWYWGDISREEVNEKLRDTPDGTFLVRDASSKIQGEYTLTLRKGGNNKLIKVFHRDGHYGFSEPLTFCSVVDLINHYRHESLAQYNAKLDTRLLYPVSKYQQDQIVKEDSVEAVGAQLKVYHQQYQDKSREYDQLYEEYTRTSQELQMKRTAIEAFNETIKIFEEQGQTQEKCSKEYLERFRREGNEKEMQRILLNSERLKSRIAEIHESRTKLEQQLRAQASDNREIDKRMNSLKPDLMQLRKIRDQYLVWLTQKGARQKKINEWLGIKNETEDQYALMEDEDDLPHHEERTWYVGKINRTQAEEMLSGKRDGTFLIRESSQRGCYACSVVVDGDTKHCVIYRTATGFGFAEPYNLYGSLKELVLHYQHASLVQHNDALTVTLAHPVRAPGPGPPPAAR
Method: as §1, §2

PRKCN (PKD3) = target: T4, PRKCN (PKD3) (Homo sapiens, UniProt O94806); conditions: for inhibition at 1 µM: 1000nM
T4 construct: purchased Thermo Fisher Scientific
T4 sequence (O94806 1-890): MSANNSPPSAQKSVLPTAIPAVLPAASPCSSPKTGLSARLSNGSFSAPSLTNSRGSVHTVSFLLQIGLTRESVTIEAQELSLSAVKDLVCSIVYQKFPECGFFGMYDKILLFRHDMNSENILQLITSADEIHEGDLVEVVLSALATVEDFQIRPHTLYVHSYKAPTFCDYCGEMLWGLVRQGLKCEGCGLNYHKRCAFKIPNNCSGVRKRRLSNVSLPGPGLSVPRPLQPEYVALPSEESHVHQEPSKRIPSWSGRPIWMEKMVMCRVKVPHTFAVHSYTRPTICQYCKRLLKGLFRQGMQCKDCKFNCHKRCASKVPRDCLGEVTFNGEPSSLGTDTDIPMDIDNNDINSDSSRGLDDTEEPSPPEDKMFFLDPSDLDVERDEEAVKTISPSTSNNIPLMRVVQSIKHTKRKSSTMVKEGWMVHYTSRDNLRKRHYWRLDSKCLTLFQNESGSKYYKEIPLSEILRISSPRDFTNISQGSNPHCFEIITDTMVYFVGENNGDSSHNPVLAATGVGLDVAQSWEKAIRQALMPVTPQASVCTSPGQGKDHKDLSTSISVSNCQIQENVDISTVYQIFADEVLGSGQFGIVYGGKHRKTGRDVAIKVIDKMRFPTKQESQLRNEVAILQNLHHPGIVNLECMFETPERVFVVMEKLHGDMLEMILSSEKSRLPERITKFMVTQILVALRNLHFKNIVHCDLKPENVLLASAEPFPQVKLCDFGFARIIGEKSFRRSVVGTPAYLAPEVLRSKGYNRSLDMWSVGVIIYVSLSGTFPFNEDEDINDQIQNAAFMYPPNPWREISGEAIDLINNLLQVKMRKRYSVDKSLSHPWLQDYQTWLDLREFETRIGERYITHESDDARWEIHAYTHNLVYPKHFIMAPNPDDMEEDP
Method: as §1, §2

IRAK4 = target: T5, IRAK4 (Homo sapiens, UniProt Q9NWZ3); conditions: for inhibition at 1 µM: 1000nM
T5 construct: purchased Thermo Fisher Scientific
T5 sequence (Q9NWZ3 1-460): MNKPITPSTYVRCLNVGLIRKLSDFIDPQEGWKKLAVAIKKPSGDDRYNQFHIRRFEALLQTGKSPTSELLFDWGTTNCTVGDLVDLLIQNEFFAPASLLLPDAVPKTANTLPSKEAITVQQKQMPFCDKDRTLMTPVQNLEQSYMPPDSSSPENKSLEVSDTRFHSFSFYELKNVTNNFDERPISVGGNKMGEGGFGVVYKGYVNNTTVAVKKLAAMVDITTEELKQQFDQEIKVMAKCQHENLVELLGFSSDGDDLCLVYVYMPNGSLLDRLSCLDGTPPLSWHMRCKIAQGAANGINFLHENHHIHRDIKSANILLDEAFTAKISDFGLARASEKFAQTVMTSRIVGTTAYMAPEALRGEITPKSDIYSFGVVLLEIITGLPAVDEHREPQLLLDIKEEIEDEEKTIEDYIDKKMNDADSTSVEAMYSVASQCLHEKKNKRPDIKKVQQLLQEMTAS
Method: as §1, §2

[2] = target: T6, PIK3CB/PIK3R1 (p110 beta/p85 alpha) (Homo sapiens, UniProt P42338); conditions: for inhibition at 1 µM: 1000nM
T6 construct: purchased Thermo Fisher Scientific
T6 sequence (P42338 whole entry): as the sequence (P42338 whole entry) above
T6 sequence (P27986 whole entry partner): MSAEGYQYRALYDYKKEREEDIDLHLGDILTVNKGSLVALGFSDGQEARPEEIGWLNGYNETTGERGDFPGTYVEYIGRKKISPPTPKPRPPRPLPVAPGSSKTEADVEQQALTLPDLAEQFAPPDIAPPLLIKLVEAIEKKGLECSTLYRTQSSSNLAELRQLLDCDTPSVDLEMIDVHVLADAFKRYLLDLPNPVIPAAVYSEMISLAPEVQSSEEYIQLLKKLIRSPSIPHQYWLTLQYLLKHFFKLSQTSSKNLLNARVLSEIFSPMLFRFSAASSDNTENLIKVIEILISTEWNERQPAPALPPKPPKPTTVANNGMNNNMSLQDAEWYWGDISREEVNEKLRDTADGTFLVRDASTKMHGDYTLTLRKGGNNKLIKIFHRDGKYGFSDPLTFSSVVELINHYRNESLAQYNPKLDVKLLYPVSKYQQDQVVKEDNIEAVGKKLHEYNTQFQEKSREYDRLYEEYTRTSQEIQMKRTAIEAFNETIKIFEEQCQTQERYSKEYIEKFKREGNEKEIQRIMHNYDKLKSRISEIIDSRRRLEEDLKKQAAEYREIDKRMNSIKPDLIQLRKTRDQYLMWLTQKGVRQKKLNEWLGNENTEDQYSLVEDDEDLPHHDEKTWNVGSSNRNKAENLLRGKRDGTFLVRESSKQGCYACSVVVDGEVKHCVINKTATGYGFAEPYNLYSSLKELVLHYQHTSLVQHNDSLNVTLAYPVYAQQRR
Method: as §1, §2

PIK3CG (p11 0 gamma) = target: T7, PIK3CG (p11 0 gamma) (Homo sapiens, UniProt P48736); conditions: for inhibition at 1 µM: 1000nM; for IC50: in vitro kinase panel, criterion of at most 2000 nM
T7 construct: purchased Thermo Fisher Scientific
T7 sequence (P48736 whole entry): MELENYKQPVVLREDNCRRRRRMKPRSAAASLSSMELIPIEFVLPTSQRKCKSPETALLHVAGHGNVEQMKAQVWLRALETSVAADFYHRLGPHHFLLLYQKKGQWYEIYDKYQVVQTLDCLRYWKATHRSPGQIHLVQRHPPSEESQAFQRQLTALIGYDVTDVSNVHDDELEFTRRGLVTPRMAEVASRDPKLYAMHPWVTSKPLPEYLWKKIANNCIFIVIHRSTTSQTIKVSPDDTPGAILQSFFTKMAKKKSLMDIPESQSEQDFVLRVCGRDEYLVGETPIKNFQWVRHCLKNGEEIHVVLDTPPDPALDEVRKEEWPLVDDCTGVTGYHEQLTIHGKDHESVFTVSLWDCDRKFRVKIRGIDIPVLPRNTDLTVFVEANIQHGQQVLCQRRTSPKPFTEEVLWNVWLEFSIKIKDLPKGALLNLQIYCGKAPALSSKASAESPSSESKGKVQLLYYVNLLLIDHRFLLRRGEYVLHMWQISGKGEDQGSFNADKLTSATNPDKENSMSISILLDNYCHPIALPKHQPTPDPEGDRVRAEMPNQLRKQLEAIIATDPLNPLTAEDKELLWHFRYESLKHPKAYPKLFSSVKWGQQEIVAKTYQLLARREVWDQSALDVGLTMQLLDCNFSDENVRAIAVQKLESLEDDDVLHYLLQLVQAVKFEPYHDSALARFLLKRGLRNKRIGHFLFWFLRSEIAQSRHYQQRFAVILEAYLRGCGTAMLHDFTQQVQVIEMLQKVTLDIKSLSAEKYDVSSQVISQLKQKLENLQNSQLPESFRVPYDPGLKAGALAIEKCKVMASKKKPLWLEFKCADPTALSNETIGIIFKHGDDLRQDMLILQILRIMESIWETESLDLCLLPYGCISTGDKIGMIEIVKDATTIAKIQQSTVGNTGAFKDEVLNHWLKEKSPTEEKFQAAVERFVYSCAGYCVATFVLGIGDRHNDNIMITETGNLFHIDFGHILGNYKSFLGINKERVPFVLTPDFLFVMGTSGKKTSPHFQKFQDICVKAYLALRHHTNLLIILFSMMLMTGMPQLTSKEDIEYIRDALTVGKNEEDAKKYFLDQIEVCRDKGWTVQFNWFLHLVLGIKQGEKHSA
Method: as §1, §2

AKT3 (PKB gamma) = target: T8, AKT3 (PKB gamma) (Homo sapiens, UniProt Q9Y243); conditions: for inhibition at 1 µM: 1000nM
T8 construct: purchased Thermo Fisher Scientific
T8 sequence (Q9Y243 whole entry): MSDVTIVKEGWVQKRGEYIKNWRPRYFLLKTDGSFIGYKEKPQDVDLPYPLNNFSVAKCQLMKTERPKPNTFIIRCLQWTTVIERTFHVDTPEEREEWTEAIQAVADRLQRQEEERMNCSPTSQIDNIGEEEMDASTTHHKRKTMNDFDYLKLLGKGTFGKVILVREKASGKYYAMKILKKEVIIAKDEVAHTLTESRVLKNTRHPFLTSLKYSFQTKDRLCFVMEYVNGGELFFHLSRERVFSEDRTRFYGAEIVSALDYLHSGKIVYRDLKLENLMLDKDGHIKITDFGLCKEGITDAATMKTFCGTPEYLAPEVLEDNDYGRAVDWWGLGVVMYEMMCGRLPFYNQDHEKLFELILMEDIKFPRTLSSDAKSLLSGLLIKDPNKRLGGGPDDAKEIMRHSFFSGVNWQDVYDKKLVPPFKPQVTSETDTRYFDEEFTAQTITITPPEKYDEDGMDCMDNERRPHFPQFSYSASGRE
Method: as §1, §2

[3] = read-out: Percentage of inhibition
[4] = 10000nM, read-out: Percentage of inhibition
[5] = PIP4K2A, compound at 10µM, read-out: % of Inhibition
[6] = DNA-PK, compound at 10µM, read-out: % of Inhibition
[7] = PIK3CB/PIK3R2, compound at 10µM, read-out: % of Inhibition
[8] = PRKCN (PKD3), compound at 10µM, read-out: % of Inhibition
[9] = IRAK4, compound at 10µM, read-out: % of Inhibition
[10] = PIK3CB/PIK3R1, compound at 10µM, read-out: % of Inhibition
[11] = PIK3CG, compound at 10µM, read-out: % of Inhibition
[12] = AKT3 (PKB gamma), compound at 10µM, read-out: % of Inhibition

Row | inhibition at 10 µM (PIP4K2A; [5]) [%] | inhibition at 10 µM (DNA-PK; [6]) [%] | inhibition at 10 µM [1, 7] [%] | inhibition at 10 µM (PRKCN (PKD3); [8]) [%] | inhibition at 10 µM (IRAK4; [9]) [%] | inhibition at 10 µM [2, 10] [%] | inhibition at 10 µM (PIK3CG (p11 0 gamma); [11]) [%] | inhibition at 10 µM (AKT3 (PKB gamma); [12]) [%] | Compound | other results
1 | – | – | – | – | – | – | – | – | COc1ccc2cc3c(N)nn(C(=O)c4cccc(N(C)C)c4)c3nc2c1 [MW05, (3-Amino-7-methoxypyrazolo[3,4-b]quinolin-1-yl)-[3-(dimethylamino)phenyl]methanone] | inhibition at 1 µM (PIP4K2A; [3]): -10%; inhibition at 10 µM (PIP4K2A; [4]): -9%; inhibition at 1 µM (DNA-PK; [3]): 30%; inhibition at 10 µM (DNA-PK; [4]): 61%; IC50 (DNA-PK; in vitro kinase panel, sub-2000 nM criterion): ≥ 2000 nM; inhibition at 1 µM [1, 3]: 15%; inhibition at 10 µM [1, 4]: 64%; inhibition at 1 µM (PRKCN (PKD3); [3]): 17%; inhibition at 10 µM (PRKCN (PKD3); [4]): 15%; inhibition at 1 µM (IRAK4; [3]): 0%; inhibition at 10 µM (IRAK4; [4]): 2%; inhibition at 1 µM [2, 3]: 21%; inhibition at 10 µM [2, 4]: 67%; inhibition at 1 µM (PIK3CG (p11 0 gamma); [3]): 20%; inhibition at 10 µM (PIK3CG (p11 0 gamma); [4]): 70%; IC50 (PIK3CG (p11 0 gamma)): ≤ 2000 nM; inhibition at 1 µM (AKT3 (PKB gamma); [3]): 4%; inhibition at 10 µM (AKT3 (PKB gamma); [4]): -6%
2 | -1 | 94 | 63 | 52 | 2 | 62 | 99 | 19 | O=c1c2cnccc2c2nccc3c4cc(O)ccc4n1c32 [MW01-E18, 5-hydroxy-1,11,16-triazapentacyclo[10.7.1.0^2,^7.0^8,^20.0^13,^18]icosa-2(7),3,5,8(20),9,11,13(18),14,16-nonaen-19-one] | –
3 | -2 | 62 | 35 | 74 | -186 | 34 | 93 | 24 | O=c1c2cc(O)ccc2c2nccc3c4cc(O)ccc4n1c32 [MW01-E10, 5,16-dihydroxy-1,11-diazapentacyclo[10.7.1.0^2,^7.0^8,^20.0^13,^18]icosa-2(7),3,5,8(20),9,11,13(18),14,16-nonaen-19-one] | –
4 | 53 | 43 | 12 | -1 | -15 | 26 | 49 | 23 | COc1ccc2c(c1)c1ccnc3c4ccnc(OC)c4c(=O)n2c13 [MW01-E14, 5,17-dimethoxy-1,11,16-triazapentacyclo[10.7.1.0^2,^7.0^8,^20.0^13,^18]icosa-2(7),3,5,8(20),9,11,13(18),14,16-nonaen-19-one] | –
5 | – | – | – | – | – | – | – | – | COc1ccc2c(c1OC)c(=O)n1c3ccc(O)cc3c3ccnc2c31 [MW01, 5-Hydroxy-10,11-dimethoxy-9H-benzo[c]indolo[3,2,1-ij][1,5]naphthyridin-9-one] | inhibition at 1 µM (PIP4K2A; [3]): -8%; inhibition at 10 µM (PIP4K2A; [4]): -3%; inhibition at 1 µM (DNA-PK; [3]): 86%; inhibition at 10 µM (DNA-PK; [4]): 96%; inhibition at 1 µM [1, 3]: 24%; inhibition at 10 µM [1, 4]: 66%; inhibition at 1 µM (PRKCN (PKD3); [3]): 34%; inhibition at 10 µM (PRKCN (PKD3); [4]): 57%; inhibition at 1 µM (IRAK4; [3]): 19%; inhibition at 10 µM (IRAK4; [4]): 50%; inhibition at 1 µM [2, 3]: 30%; inhibition at 10 µM [2, 4]: 67%; inhibition at 1 µM (PIK3CG (p11 0 gamma); [3]): 81%; inhibition at 10 µM (PIK3CG (p11 0 gamma); [4]): 88%; IC50 (PIK3CG (p11 0 gamma)): ≤ 2000 nM; inhibition at 1 µM (AKT3 (PKB gamma); [3]): 7%; inhibition at 10 µM (AKT3 (PKB gamma); [4]): 18%
6 | -4 | 9 | 12 | -8 | -9 | 13 | -1 | 12 | COc1ccc2c(c1)c1ccnc3c4nc(OC)ccc4c(=O)n2c13 [MW01-E6, 5,15-dimethoxy-1,11,14-triazapentacyclo[10.7.1,0^2,7.0^8,^20.0^13,^18]icosa-2(7),3,5,8(20),9,11,13(18),14,16-nonaen-19-one] | –
7 | -6 | 16 | 7 | 7 | -3 | 1 | 2 | 11 | COc1ccc2nc3c(cc2c1)c(N)nn3C(=O)c1cccc(N(C)C)c1 [MW05-E2, 1-[3-(dimethylamino)benzoyl]-6-methoxy-1H-pyrazolo[3,4-b]quinolin-3-amine] | –
